# Results published in US10519154B2, “7-substituted 1-pyridyl-naphthyridine-3-carboxylic acid amides and use thereof” (Bayer Pharma Aktiengesellschaft, priority 2016, dated 2019).
# pEC50: −log10 of the molar value.
# Assays:
# human M2 receptor [1] = target: T1, human M2 receptor (Homo sapiens, UniProt P08172); experiment: Functional M2-GIRK1/4 activation test: positive cooperativity (alpha factor); conditions: shift of acetylcholine dose-response curve (Allosteric EC50 shift); CHO-DUKX-M2-GIRK cells
# T1 sequence (P08172 1-466): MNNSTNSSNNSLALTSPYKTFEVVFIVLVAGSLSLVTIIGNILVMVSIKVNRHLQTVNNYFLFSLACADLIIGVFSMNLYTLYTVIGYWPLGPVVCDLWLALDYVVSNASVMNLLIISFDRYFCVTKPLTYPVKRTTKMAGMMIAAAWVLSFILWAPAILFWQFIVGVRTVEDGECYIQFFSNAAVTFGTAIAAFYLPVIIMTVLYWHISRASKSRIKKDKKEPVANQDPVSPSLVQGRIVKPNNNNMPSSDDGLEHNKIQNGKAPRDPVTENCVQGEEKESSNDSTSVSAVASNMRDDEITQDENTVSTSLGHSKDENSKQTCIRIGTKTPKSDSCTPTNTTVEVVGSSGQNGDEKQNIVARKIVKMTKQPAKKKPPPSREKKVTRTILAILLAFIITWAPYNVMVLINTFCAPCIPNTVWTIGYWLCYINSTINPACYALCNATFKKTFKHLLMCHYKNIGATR
# From the text: The binding of orthosteric agonists (endogenous ligand: acetylcholine) to the M2 receptor leads to receptor activation or a change in conformation of the receptor in the manner of a shift in equilibrium in favor of the active receptor conformation.
# The agonist-induced change in conformation of the M2 receptor results in a Gαi protein activation. […] Under physiological conditions, the result is then a selective efflux of potassium from the cell along the electrochemical gradient. […] The extent of hyperpolarization can therefore be regarded as a measure of the activation of the M2 receptor.
# The test cell used is a recombinant CHO-DUKX cell line which has been stably transfected with cDNA coding for the human M2 receptor and with cDNA coding for both GIRK1/4 subunits (CHO-DUKX-M2-GIRK). The transmembrane potential, or the relative changes in the transmembrane potential as a function of substance addition or M2 activation, is determined by means of a voltage-sensitive dye (FLIPR Membrane Potential Assay Kit Blue, Molecular Devices #R8034) and the measurement of cell fluorescence using a proprietary fluorescence imaging instrument.
# In accordance with the desired test concentrations, the substances were pre-diluted in loading buffer (see above).
# The sowing medium consisted of MEM alpha medium (supplemented with 5% FCS, 2% Glutamax, no genticin).
# For the particular measurement, the medium was removed and the cells were laden with the voltage-sensitive dye for at least 6 min at room temperature (30 μl of loading buffer per 384-well). This was followed, in a first measurement, by the determination of the resting transmembrane potential for a period of 5 sec in 1 sec increments. Thereafter, 10 μl in each case of the test substances diluted in loading buffer are added, followed by a second measurement to determine the transmembrane potential for a period of 50 sec in 1 sec increments.
# Finally, the cells are admixed with 10 μl of agonist solution (acetylcholine dissolved in loading buffer). In contrast to the EC50 determination of the test substances (see B-1.1), however, this is not done using one acetylcholine concentration; instead, every concentration of the test substance is combined with an acetylcholine 8-point dose-response curve. […] The M2-mediated GIRK1/4 activation or hyperpolarization is then monitored in a third measurement over a period of 60 sec in 1 sec increments. The shift in the acetylcholine dose-response curve in the presence of increasing concentrations of the test substance is analyzed and quantified by means of GraphPad PRISM (Allosteric EC50 shift). […] Positive cooperativity is the hallmark of a positive allosteric modulator. […] The greater the magnitude of the cc value, the greater the extent of cooperativity between orthosteric and allosteric.
# human M2 receptor [2] = target: T1, human M2 receptor; experiment: Functional M2-GIRK1/4 activation test: allosteric potency (EC50) and efficiency; conditions: for pEC50: Receptor activity EC50, CHO-DUKX-M2-GIRK cells, acetylcholine at EC20, in some cases mean of two or more determinations; for Emax: read-out: Efficiency, boosting of the acetylcholine effect at EC20 acetylcholine concentration, CHO-DUKX-M2-GIRK cells
Structure (SMILES),Cooperativity (alpha factor) (human M2 receptor [1]),pEC50 (human M2 receptor [2]),Emax (human M2 receptor [2]) [%]
"CCC(NC(=O)c1cn(-c2ncc(F)cc2F)c2nc(N3CCNC3=O)ccc2c1=O)C(F)(F)C(F)(F)F (single isomer, unassigned) [Example 165, 1-(3,5-Difluoropyridin-2-yl)-4-oxo-7-(2-oxoimidazolidin-1-yl)-N-[1,1,1,2,2-pentafluoropentan-3-yl]-1,4-dihydro-1,8-naphthyridine-3-carboxamide]",30,7.89,84
"O=C(N[C@@H](C1CC1)C(F)(F)F)c1cn(-c2ncc(F)cc2F)c2nc(N3C[C@@H](O)CC3=O)ccc2c1=O [Example 14, N-[(1S)-1-Cyclopropyl-2,2,2-trifluoroethyl]-1-(3,5-difluoropyridin-2-yl)-7-[(4S)-4-hydroxy-2-oxopyrrolidin-1-yl]-4-oxo-1,4-dihydro-1,8-naphthyridine-3-carboxamide]",50,7.06,98.5
"O=C(NC(C(F)(F)F)C(F)(F)F)c1cn(-c2ncc(F)cc2F)c2nc(N3C[C@@H](O)CC3=O)ccc2c1=O [Example 15, 1-(3,5-Difluoropyridin-2-yl)-N-(1,1,1,3,3,3-hexafluoropropan-2-yl)-7-[(4S)-4-hydroxy-2-oxopyrrolidin-1-yl]-4-oxo-1,4-dihydro-1,8-naphthyridine-3-carboxamide]",63,7.37,96.2
"O=C(Nc1c(Cl)cccc1Cl)c1cn(-c2ncc(F)cc2F)c2nc(N3C[C@@H](O)CC3=O)ccc2c1=O [Example 16, N-(2,6-Dichlorophenyl)-1-(3,5-difluoropyridin-2-yl)-7-[(4S)-4-hydroxy-2-oxopyrrolidin-1-yl]-4-oxo-1,4-dihydro-1,8-naphthyridine-3-carboxamide]",40,7.32,99
"CC[C@H](NC(=O)c1cn(-c2ncc(F)cc2F)c2nc(N3CC(C)CC3=O)ccc2c1=O)C(F)(F)F (stereo partly drawn) [Example 30, 1-(3,5-Difluoropyridin-2-yl)-7-[4-methyl-2-oxopyrrolidin-1-yl]-4-oxo-N-[(2S)-1,1,1-trifluorobutan-2-yl]-1,4-dihydro-1,8-naphthyridine-3-carboxamide]",14,7.19,99
"O=C(NC(C(F)(F)F)C(F)(F)F)c1cn(-c2ncc(F)cc2F)c2nc(N3C[C@@H](O)[C@@H](O)C3)ccc2c1=O [Example 55, 1-(3,5-Difluoropyridin-2-yl)-7-[(3R,4S)-3,4-dihydroxypyrrolidin-1-yl]-N-(1,1,1,3,3,3-hexafluoropropan-2-yl)-4-oxo-1,4-dihydro-1,8-naphthyridine-3-carboxamide]",79,6.96,100
"O=C(NC(C(F)(F)F)C(F)(F)F)c1cn(-c2ncc(F)cc2F)c2nc(N3C[C@@H](O)[C@H](O)C3)ccc2c1=O [Example 56, 1-(3,5-Difluoropyridin-2-yl)-7-[(3R,4R)-3,4-dihydroxypyrrolidin-1-yl]-N-(1,1,1,3,3,3-hexafluoropropan-2-yl)-4-oxo-1,4-dihydro-1,8-naphthyridine-3-carboxamide]",68,7.47,100
"CC[C@H](NC(=O)c1cn(-c2ncc(F)cc2F)c2nc(N3CCNC3=O)ccc2c1=O)C(F)(F)F [Example 64, 1-(3,5-Difluoropyridin-2-yl)-4-oxo-7-(2-oxoimidazolidin-1-yl)-N-[(2S)-1,1,1-trifluorobutan-2-yl]-1,4-dihydro-1,8-naphthyridine-3-carboxamide]",32,6.81,91.3
"O=C(Nc1c(Cl)cccc1Cl)c1cn(-c2ncc(F)cc2F)c2nc(N3C[C@@H](O)[C@H](O)C3)ccc2c1=O [Example 67, N-(2,6-Dichlorophenyl)-1-(3,5-difluoropyridin-2-yl)-7-[(3R,4R)-3,4-dihydroxypyrrolidin-1-yl]-4-oxo-1,4-dihydro-1,8-naphthyridine-3-carboxamide]",36,7.28,97
"CC(C)(C)[C@@H](NC(=O)c1cn(-c2ncc(F)cc2F)c2nc(N3C[C@@H](O)CC3=O)ccc2c1=O)C(F)(F)F [Example 73, 1-(3,5-Difluoropyridin-2-yl)-7-[(4S)-4-hydroxy-2-oxopyrrolidin-1-yl]-4-oxo-N-[(2R)-1,1,1-trifluoro-3,3-dimethylbutan-2-yl]-1,4-dihydro-1,8-naphthyridine-3-carboxamide]",68,8.00,100
"CC(C)(C)[C@H](NC(=O)c1cn(-c2ncc(F)cc2F)c2nc(N3C[C@@H](O)CC3=O)ccc2c1=O)C(F)(F)F [Example 98, 1-(3,5-Difluoropyridin-2-yl)-7-[(4S)-4-hydroxy-2-oxopyrrolidin-1-yl]-4-oxo-N-[(2S)-1,1,1-trifluoro-3,3-dimethylbutan-2-yl]-1,4-dihydro-1,8-naphthyridine-3-carboxamide]",56,7.64,100
"O=C(N[C@H](C1CC1)C(F)(F)F)c1cn(-c2ncc(F)cc2F)c2nc(N3C[C@@H](O)CC3=O)ccc2c1=O [Example 138, N-[(1R)-1-Cyclopropyl-2,2,2-trifluoroethyl]-1-(3,5-difluoropyridin-2-yl)-7-[(4S)-4-hydroxy-2-oxopyrrolidin-1-yl]-4-oxo-1,4-dihydro-1,8-naphthyridine-3-carboxamide]",61,7.15,98.5
"CC[C@@H](NC(=O)c1cn(-c2ncccc2F)c2nc(N3C[C@@H](O)CC3=O)ccc2c1=O)C(F)(F)F [Example 140, 1-(3-Fluoropyridin-2-yl)-7-[(4S)-4-hydroxy-2-oxopyrrolidin-1-yl]-4-oxo-N-[(2R)-1,1,1-trifluorobutan-2-yl]-1,4-dihydro-1,8-naphthyridine-3-carboxamide]",47,6.60,92
